In PubChem BioAssay (NCI):
Several values for one entry are separate records, joined by “and”; a condition that tells them apart may be missing. Equal entries are not always repeated.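 These data come from cells grown in 96-well plates and exposed to compound for 48 hours at five concentrations. At the GI50, growth is halved. The concentration for full growth arrest is given as TGI.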

Assays:
Assay in all cases: DTP human tumour cell line panel, 48 h
[1] = test system: HCT-116 colon
[2] = test system: KM12 colon
[3] = test system: NCI-H226 lung
[4] = test system: PC-3 prostate
[5] = test system: RPMI-8226 leukemia
[6] = test system: SF-295 CNS
[7] = test system: SF-539 CNS
[8] = test system: SR leukemia
[9] = test system: TK-10 renal
[10] = test system: UACC-62 melanoma

Row | SMILES | GI50 [1] | TGI [1] | GI50 [2] | TGI [2] | GI50 [3] | TGI [3] | GI50 [4] | TGI [4] | GI50 [5] | TGI [5] | GI50 [6] | TGI [6] | GI50 [7] | TGI [7] | GI50 [8] | TGI [8] | GI50 [9] | TGI [9] [µM] | GI50 [10] | TGI [10]
1 | COc1cc(CNCCCN2C(=O)c3ccc4c5c(ccc(c35)C2=O)C(=O)N(CCCNCc2cc(OC)c(OC)c(OC)c2)C4=O)cc(OC)c1OC | 0.133 µM | 0.41 µM | 0.238 µM | 0.834 µM | 0.814 µM | 2 µM | 0.387 µM | 1.57 µM | 0.523 µM | 2.34 µM | 0.517 µM | 1.55 µM | 0.653 µM | 1.39 µM | 0.18 µM | 1.62 µM | 0.416 µM | 1.32 | 0.793 µM | 1.57 µM
2 | O=C(c1c(F)ccc(NS(=O)(=O)N2CC[C@@H](F)C2)c1F)c1c[nH]c2ncc(-c3cnc(C4CC4)nc3)cc12 | 4.52 µM and 4.11 µM | > 10 µM and 41.8 µM | 8.25 µM and 9.66 µM | > 10 µM and 33.6 µM | 4.81 µM and 9.14 µM | > 10 µM and 64.6 µM | 7.03 µM and 6.82 µM | > 10 µM and 70 µM | 5.59 µM and 5.45 µM | > 10 µM and 42.2 µM | 5.87 µM and 4.71 µM | > 10 µM and 33.5 µM | 6.74 µM and 6.17 µM | > 10 µM and 23.7 µM | 5.35 µM and 3.93 µM | > 10 µM and 79.6 µM | 3.53 µM and 8.03 µM | > 66.9 | 0.0033 µM and < 0.01 µM | 0.13 µM and 0.123 µM
3 | N=c1ccn2c(n1)OC1C(O)C(CO)OC12 (centres undefined) | 0.164 µM | > 1000 µM | 147 µM and > 40.9 µM | > 806 µM | 120 µM and > 79 µM | > 719 µM | > 100 µM | > 1000 µM | 3.97 µM | > 1000 µM | 5.93 µM | 359 µM and > 100 µM | 31.9 µM | > 1000 µM | 2.6 µM | > 231 µM |  | > 1000 | 1.55 µM | 212 µM and > 100 µM
4 | CCCn1c(N)c(C(=O)N/N=C(/C)c2cc3cccc(OC)c3o2)sc1=S | 17.4 µM | > 100 µM | 22.2 µM | > 100 µM | 45.2 µM | > 100 µM | 30.6 µM | > 100 µM | 53.6 µM | > 100 µM | 0.01 µM | 18.1 µM | 17.1 µM | 90.7 µM | 8.66 µM | > 100 µM | 28.8 µM | > 100 | 34.6 µM | > 100 µM
5 | C=CC(=O)N1CCC(C2CCNc3c(C(N)=O)c(-c4ccc(Oc5ccccc5)cc4)nn32)CC1 (centres undefined) | 17.6 µM | 39.5 µM | 22.9 µM | 67 µM | 11.1 µM | 69.4 µM | 22 µM | 69.6 µM | 12.4 µM | 39.5 µM | 17.9 µM | 70 µM | 13.5 µM | 43 µM | 10.4 µM | 46.8 µM | 1.29 µM | 11.6 | 10.6 µM | 27 µM
6 | CC1=CC(=O)[C@@H](O)[C@]2(C)[C@H]3[C@@]4(O)OC[C@]35[C@H]([C@@H](C)[C@H]4O)[C@@H](O)C(=O)O[C@@H]5C[C@@H]12 |  | 0.288 µM |  | 1.72 µM |  | 0.694 µM |  | 1.67 µM |  | > 100 µM |  | 3.7 µM |  | 0.261 µM |  | > 100 µM |  | 7.76 |  | 6.29 µM
7 | O=c1c2ccccc2sc2cccc(NCCCN3CCN(CCCNc4cccc5sc6ccccc6c(=O)c45)CC3)c12 |  | > 100 µM |  | > 100 µM |  | > 100 µM |  | > 100 µM |  | > 100 µM |  | > 100 µM |  | > 100 µM |  | > 100 µM |  | > 100 |  | > 100 µM
8 | COc1ccccc1N1CCN(CCCn2c(=O)c3c(OC)nc(C)cc3c(=O)n2-c2ccccc2)CC1 | > 100 µM | > 100 µM | > 100 µM | > 100 µM | > 100 µM | > 100 µM | > 100 µM | > 100 µM | > 100 µM | > 100 µM | > 100 µM | > 100 µM | > 100 µM | > 100 µM | > 100 µM | > 100 µM | > 100 µM | > 100 | > 100 µM | > 100 µM
